Key:
[1] = tested on: Wistar rats; assay: Rotenone-induced PD: severe catalepsy on inclined grid; type: in vivo, rat; conditions: for Severe catalepsy (% of group): 45 min before rotenone 2.3 mg/kg, immobilization on inclined grid above 40 seconds; for Severe catalepsy, Day 12: oral daily 19 days, 45 min before rotenone 2.3 mg/kg IP, levodopa given with benserazide 4:1, control 42, rat dose mg/kg by row (L levodopa, P phenylephrine, M memantine): r12 M2.5, r13 M5, r14 P0.3, r15 L10, r16 L20, r17 L5+P0.3+M1, r18 L10+P0.3+M1; for Severe catalepsy, Day 19: control 58, doses as E38
Text: Rotenone is a specific inhibitor of mitochondrial complex 1, which causes oxidative stress and apoptotic death of dopaminergic and cholinergic neurons in the striatum, substantia nigra and cerebellum. Damage to these neurons causes a decrease in dopamine and acetylcholine levels in the striatum, extrapyramidal disorders (catalepsy, impaired coordination of movements) and oligokinesia typical for PD, as well as ataxia, limb dystonia and mortality characteristic of PSP. Rotenone is used to create a model of PD and PSP in Wistar rats by intraperitoneal introduction of rotenone in a toxic dose of 2.3 mg/kg (Jason R. Cannon et al., Neurobiology of Disease, 2009, Vol. 34, pages 279-290).
Rotenone was dissolved in mixture of DMSO and Miglyol 812N at a ratio of 2:98 at concentration of 2.3 mg/ml. Preparation: 230 mg sample of rotenone in vials was dissolved in 2 ml of DMSO. The solution was poured into a jar with 100 ml. Vials are rinsed twice with 5 ml of Miglyol, washings attached to the main solution and stirred. To this solution was added 88 ml of Miglyol and mixed again. The resulting solution was divided into 3 doses. The solution was stored at −10° C. Each animal was administered 0.2 ml of a solution of rotenone: a dose of 0.46 mg per animal weighing 200±20 g, i.e. 2.3 mg/kg. The solution of rotenone was injected IP one time a day for 19 days.
Anti-parkinsonian effect of therapy in rats with rotenone-induced PD was estimated according to elimination of extrapyramidal disorders (catalepsy) and oligokinesia (rapid decreased amplitude and velocity of repeated movements) in the “open field” test. The neuro-protective effect of therapy was evaluated by the elimination of ataxia limb dystonia and mortality in rats with rotenone-induced PSP. Hyperkinetic side action (hyper-locomotion) was evaluated by increased horizontal and vertical activity in the open field at the 10th and 18th day of the experiment, calculated in % compared to the first day of the experiment.
The number of animals in the control and experimental groups ranged from 6 to 8.
Levodopa was administered in combination with benserazide (peripheral dopa-decarboxylase inhibitor) at a ratio of 4:1 to reduce the side effects of levodopa, associated with the stimulation of peripheral dopamine receptors (Alam M. et al., Behav. Brain Res., 2004, Vol. 153 (2), pages 439-446). Levodopa with benserazide were dissolved in 1 ml of DW and administered orally in the volume of 1 ml. […] The mixture was administered orally in a volume of 1 ml. Anti-parkinsonian effect in the experimental groups of rats with rotenone has been evaluated by eliminating catalepsy and oligokinesia.
Catalepsy in rats is determined by the time of immobilization of the animal, placed on a large grid predisposed at an angle of 45°. Maximum catalepsy in rats is recorded in the case of their complete immobilization on grid at 120 seconds for observation. The value of catalepsy is evaluated in points: 3 points—immobilization duration from 80 seconds to 120, 2 points—immobilization duration from 40 to 70, 1 point—immobilization duration from 20 to 35, 0 points—the immobilization of less than 20 seconds. Catalepsy was followed in rats daily, 30 minutes before administration of rotenone and 180 minutes after administration of rotenone. For each experimental group, on a daily basis, throughout the period of observation number of rats with severe catalepsy (2-3 points) was determined in % of the total number of rats in group. To assess the anti-cataleptic effects of therapy, on 12th and 19th day of experiment, reduction in the number of rats with severe catalepsy (2-3 points) in % was determined compared to control treated with distilled water.
Anti-parkinsonian effect of therapy in rats with rotenone-induced parkinsonism was estimated according to elimination of extrapyramidal disorders (catalepsy) and oligokinesia in the “open field” test. […]

[2] = tested on: Wistar rats; assay: Rotenone-induced PD: severe oligokinesia in open field test; type: in vivo, rat; conditions: oligokinesia ++-+++ in OF test
Description: Locomotive activity of rats was tested in the “open field” test. […] Registration of horizontal and vertical locomotive activity was carried out in first day for rats with high selection locomotive activity (total walking time with not less than 12 seconds and the number of vertical uprights at least 4), 60 minutes before the first administration of rotenone. To identify the rotenone-induced oligokinesia in each experimental group the locomotive activity in the open field test was examined again 2 hours after the administration of rotenone on days 12 and 19 of the experiment.
(§1) Quantification of oligokinesia in points: 0 points—the highest horizontal activity (walking total time more than 12 seconds) and high vertical activity (number of vertical posts) more than 3; 1 point—reducing the horizontal activity (total walking time 7-11 seconds) and a decrease in vertical activity (the number of vertical columns 1-3); 2 points—a significant reduction in horizontal activity (total walking time 2-6 seconds) and the absence of vertical activity (the number of vertical columns 0-1); 3 points—the absence of horizontal activity (total walking time 0-1 seconds) and the absence of vertical activity (number of vertical columns 0). In each experimental group 120 minutes after administration of rotenone on days 12 and 19 of experiment the number of rats with severe oligokinesia (2-3 points) in % of the total number of rats in group was determined.
Locomotive activity of rats was tested in the “open field” test. […] Registration of horizontal and vertical locomotive activity was carried out in first day for rats with high selection locomotive activity (total walking time with not less than 12 seconds and the number of vertical uprights at least 4), 60 minutes before the first administration of rotenone. To identify the rotenone-induced oligokynesia in each experimental group the locomotive activity in the open field test was examined again 2 hours after the administration of rotenone on days 12 and 19 of the experiment.
as §1, with “of oligokynesia” for “of oligokinesia”

CC12CC3CC(C)(C1)CC(N)(C3)C2 [Memantine, memantine]
Severe catalepsy (% of group) ([1]; Day 12, memantine 5 mg/kg oral): 17 % of group | Severe catalepsy (% of group) ([1]; Day 12, memantine […] oral): 33 % of group | Severe catalepsy (% of group) ([1]; Day 19, memantine 5 mg/kg oral): 17 % of group | Severe catalepsy (% of group) ([1]; Day 19, memantine […] oral): 50 % of group | Severe catalepsy, Day 12 ([1]; memantine 2.5 mg/kg): 33 % of group | Severe catalepsy, Day 12 ([1]; memantine 5 mg/kg): 17 % of group | Severe oligokinesia (% of group) ([2]; Day 12, memantine 5 mg/kg oral): 50 % of group | Severe oligokinesia (% of group) ([2]; Day 19, memantine 5 mg/kg oral): 50 % of group

N[C@@H](Cc1ccc(O)c(O)c1)C(=O)O [Levodopa, L-3,4-dihydroxyphenylalanine]
Severe catalepsy (% of group) ([1]; Day 12, levodopa 10 mg/kg oral): 28 % of group | Severe catalepsy (% of group) ([1]; Day 12, levodopa 20 mg/kg oral): 12 % of group | Severe catalepsy (% of group) ([1]; Day 19, levodopa 10 mg/kg oral): 42 % of group | Severe catalepsy (% of group) ([1]; Day 19, levodopa 20 mg/kg oral): 24 % of group | Severe catalepsy, Day 19 ([1]; levodopa 10 mg/kg): 42 % of group | Severe catalepsy, Day 19 ([1]; levodopa 20 mg/kg): 24 % of group | Severe oligokinesia (% of group) ([2]; Day 12, levodopa 10 mg/kg oral): 86 % of group | Severe oligokinesia (% of group) ([2]; Day 12, levodopa 20 mg/kg oral): 50 % of group | Severe oligokinesia (% of group) ([2]; Day 19, levodopa 10 mg/kg oral): 100 % of group | Severe oligokinesia (% of group) ([2]; Day 19, levodopa 20 mg/kg oral): 63 % of group
